The record followed here is ChEMBL document CHEMBL1201862, “PubChem BioAssay data set” (2004).

The source made the active and inactive calls.

Assay [1] concerns the target Luciferin 4-monooxygenase (Photinus pyralis, UniProt P08659). The assay can be described thus: firefly luciferase enzyme inhibitors, dose response, biochemical, luminescence (AID 1891).
Assay [2] concerns the target Cyclin-dependent kinase 5/CDK5 activator 1 (Homo sapiens, UniProt Q00535). The assay can be described thus: CDK5/p35 kinase inhibitors, dose response, biochemical, cherry-picked samples, set 2 (AID 504545).
The target in assay [3] is Paired box protein Pax-8 (Homo sapiens, UniProt Q06710). Nature of the assay: inhibitors of PAX8-driven TPO luciferase reporter, dose response, RMG-I cells, cherry-pick (AID 687027).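 Also: luciferase reporter driven by Pax8 target thyroperoxidase promoter measured by SteadyGlo luminescence.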 It is filed as functional, cell-based.
Assay [4] addresses T1, RNA-binding protein pos-1 (Caenorhabditis elegans, UniProt G5EF15).
T1 sequence (G5EF15 whole entry): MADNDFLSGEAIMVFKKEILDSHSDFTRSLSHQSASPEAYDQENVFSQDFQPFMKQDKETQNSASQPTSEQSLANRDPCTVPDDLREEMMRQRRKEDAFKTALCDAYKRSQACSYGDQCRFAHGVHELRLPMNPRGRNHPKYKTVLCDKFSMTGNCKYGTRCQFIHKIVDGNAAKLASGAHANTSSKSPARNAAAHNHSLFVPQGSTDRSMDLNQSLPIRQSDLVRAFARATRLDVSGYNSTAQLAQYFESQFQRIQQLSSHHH
Nature of the assay: inhibitors of POS-1/mex-3 RNA binding, dose response, biochemical, fluorescence polarization (AID 1964).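 Also: purified POS-1 fused to maltose binding protein made in E. coli; potency of compounds blocking POS-1 binding to fluorescent RNA.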

Assay [5] deals with T2, Zinc finger protein mex-5 (Caenorhabditis elegans, UniProt Q9XUB2).
T2 sequence (Q9XUB2 whole entry): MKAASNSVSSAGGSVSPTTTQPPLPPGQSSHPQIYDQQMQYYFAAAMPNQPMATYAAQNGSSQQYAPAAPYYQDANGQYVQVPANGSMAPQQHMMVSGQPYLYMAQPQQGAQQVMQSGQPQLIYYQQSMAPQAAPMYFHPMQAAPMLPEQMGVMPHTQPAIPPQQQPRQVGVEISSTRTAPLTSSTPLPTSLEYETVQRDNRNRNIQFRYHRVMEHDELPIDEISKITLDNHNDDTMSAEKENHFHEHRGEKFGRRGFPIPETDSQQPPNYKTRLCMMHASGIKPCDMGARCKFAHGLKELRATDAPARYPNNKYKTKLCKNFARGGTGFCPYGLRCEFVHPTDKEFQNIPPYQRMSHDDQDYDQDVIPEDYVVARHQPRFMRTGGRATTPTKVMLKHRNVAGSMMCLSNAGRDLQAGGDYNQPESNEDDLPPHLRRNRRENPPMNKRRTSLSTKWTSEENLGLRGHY
The assay can be described thus: MEX-5/TCR-2 RNA interaction inhibitors, dose response, biochemical, C. elegans, fluorescence polarization (AID 1960).

In assay [6] the target is T3, Endoribonuclease toxin MazF (Escherichia coli K-12, UniProt P0AE70).
T3 sequence (P0AE70 whole entry): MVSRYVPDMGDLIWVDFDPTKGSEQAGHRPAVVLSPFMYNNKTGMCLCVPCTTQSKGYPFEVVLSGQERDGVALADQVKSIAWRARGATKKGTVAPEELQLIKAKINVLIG
Nature of the assay: MazF toxin RNase activators, dose response, biochemical, fluorescence, single-stranded RNA substrate, uHTS hits (AID 588481). In kind it is functional.

The target in assay [7] is T3, Endoribonuclease toxin MazF. Nature of the assay: fluorescent RNA oligo signal without MazF, dose response, counter-screen for MazEF activator project, biochemical, fluorescence, single-stranded RNase substrate (AID 588502). In kind it is functional.
Assay [8] concerns the target T4, CAAX prenyl protease 2 (Saccharomyces cerevisiae S288c, UniProt Q03530).
T4 sequence (Q03530 whole entry): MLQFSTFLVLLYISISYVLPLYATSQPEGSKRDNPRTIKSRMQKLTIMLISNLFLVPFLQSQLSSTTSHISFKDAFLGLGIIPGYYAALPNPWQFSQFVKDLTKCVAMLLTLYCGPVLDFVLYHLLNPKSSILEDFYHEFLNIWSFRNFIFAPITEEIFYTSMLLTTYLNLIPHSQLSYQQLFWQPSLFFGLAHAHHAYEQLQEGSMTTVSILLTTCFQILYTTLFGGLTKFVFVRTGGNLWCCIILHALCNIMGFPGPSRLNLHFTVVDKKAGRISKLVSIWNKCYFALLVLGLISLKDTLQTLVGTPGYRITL
In kind it is biochemical.

For assay [9], the target named is T5, Microphthalmia-associated transcription factor (Homo sapiens, UniProt O75030).
T5 sequence (O75030 whole entry): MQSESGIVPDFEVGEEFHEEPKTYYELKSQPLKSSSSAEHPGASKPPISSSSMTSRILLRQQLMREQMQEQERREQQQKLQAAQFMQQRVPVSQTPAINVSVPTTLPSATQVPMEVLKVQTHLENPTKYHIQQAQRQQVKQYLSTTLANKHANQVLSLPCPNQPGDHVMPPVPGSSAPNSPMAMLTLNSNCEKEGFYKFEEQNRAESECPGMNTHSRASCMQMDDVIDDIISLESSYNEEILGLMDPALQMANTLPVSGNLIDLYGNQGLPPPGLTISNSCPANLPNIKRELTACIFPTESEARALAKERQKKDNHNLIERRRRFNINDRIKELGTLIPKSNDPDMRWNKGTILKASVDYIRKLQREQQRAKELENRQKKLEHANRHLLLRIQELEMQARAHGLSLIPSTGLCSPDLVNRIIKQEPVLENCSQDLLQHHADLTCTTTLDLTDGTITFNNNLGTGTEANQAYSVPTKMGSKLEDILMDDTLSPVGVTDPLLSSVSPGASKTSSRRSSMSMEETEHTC
Nature of the assay: TRPM1 promoter luciferase signal decrease, dose response, MITF inhibitor project, cell-based, SK-MEL-5, cherry-picked, set 3 (AID 493073).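 Also: SK-MEL-5 melanoma cells with luciferase driven by the MITF target TRPM1 promoter.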 In kind it is functional.

Assay [10] can be described thus: cytotoxicity in HEK-293T cells, dose response, cytotoxicity control for TCR NF-kB inhibitor project, luminescence, T-cell screen hits (AID 489026).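 Also: cells exposed to compound about 14 hours before the viability readout.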 It is filed as functional, cell-based.
Assay [11] in a line: inhibitors of firefly luciferase expression or activity, dose response, H4 neuroglioma cells, luminescence (AID 1990). It is filed as functional, cell-based.
Assay [12] in a line: Luminescence Cell-Based Dose Response HTS to Identify Inhibitors of 5'UTR Stem-Loop Driven Prion Protein mRNA Translation in H4 Neuroglioblastoma Cells. [Related pubchem assays: 1827 (Project Summary), 1813 (Primary HTS)]. It is filed as functional.
Assay [13] is described as follows: inhibitors of SNCA 5'UTR-driven reporter translation, confirmation, H4 neuroglioma cells, luminescence (AID 1988). In kind it is functional, cell-based.
In assay [14] the target is Peroxisome proliferator-activated receptor gamma/Nuclear receptor corepressor 2 (Homo sapiens, UniProt P37231+Q9Y618). Nature of the assay: Counterscreen for NR2E3 inverse agonists: TR-FRET-based biochemical high throughput dose response assay to identify inverse agonists of the interaction between peroxisome proliferator-activated receptor gamma (PPARg) and nuclear receptor co-repressor 2 (NCOR2). It is filed as functional.

The target in assay [15] is Photoreceptor-specific nuclear receptor (Homo sapiens, UniProt Q9Y5X4). The assay can be described thus: NR2E3 inverse agonists, dose response, biochemical, TR-FRET (AID 463256). It is filed as functional.
Assay [16] has as its target T6, Neuropeptide Y receptor type 1 (Homo sapiens, UniProt P25929).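 Also: HEK293 cells with a CNG channel challenged with NPY then isoproterenol; potency as antagonist that reverses NPY suppression of cAMP signal.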
T6 sequence (P25929 whole entry): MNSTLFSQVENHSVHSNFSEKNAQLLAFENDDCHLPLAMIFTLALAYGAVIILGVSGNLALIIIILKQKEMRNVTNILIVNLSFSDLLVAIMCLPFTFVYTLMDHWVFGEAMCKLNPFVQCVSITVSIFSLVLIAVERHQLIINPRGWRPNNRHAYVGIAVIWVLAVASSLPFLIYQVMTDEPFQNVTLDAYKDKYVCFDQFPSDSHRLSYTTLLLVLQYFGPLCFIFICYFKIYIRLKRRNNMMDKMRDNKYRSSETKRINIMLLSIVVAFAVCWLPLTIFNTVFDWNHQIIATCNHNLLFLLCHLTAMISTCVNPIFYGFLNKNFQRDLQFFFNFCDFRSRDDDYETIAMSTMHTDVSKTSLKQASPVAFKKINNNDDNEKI
In kind it is functional.

The target in assay [17] is T7, Neuropeptide Y receptor type 2 (Homo sapiens, UniProt P49146).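 Also: HEK293 cells expressing the receptor and a CNG channel; stimulus was NPY near EC95 followed by isoproterenol to raise cAMP; antagonist potency measured as restoring cAMP signal that NPY suppresses.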
T7 sequence (P49146 whole entry): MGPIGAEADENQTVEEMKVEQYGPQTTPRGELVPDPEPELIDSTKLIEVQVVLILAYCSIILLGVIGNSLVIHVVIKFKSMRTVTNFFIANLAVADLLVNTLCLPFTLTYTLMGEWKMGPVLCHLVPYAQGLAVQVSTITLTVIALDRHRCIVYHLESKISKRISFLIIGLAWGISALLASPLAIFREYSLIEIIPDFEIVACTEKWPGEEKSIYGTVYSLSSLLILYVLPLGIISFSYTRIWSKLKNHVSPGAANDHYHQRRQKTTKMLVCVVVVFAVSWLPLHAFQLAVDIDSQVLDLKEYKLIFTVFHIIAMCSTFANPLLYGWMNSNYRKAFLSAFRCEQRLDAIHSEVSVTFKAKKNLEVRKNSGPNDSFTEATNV
It is filed as functional, cell-based.

Assay [18] concerns the target T8, Coagulation factor XII (Homo sapiens, UniProt P00748).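 Also: activated factor XIIa alpha cleaving a fluorogenic AMC peptide substrate; inhibitor potency from loss of enzyme activity.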
T8 sequence (P00748 whole entry): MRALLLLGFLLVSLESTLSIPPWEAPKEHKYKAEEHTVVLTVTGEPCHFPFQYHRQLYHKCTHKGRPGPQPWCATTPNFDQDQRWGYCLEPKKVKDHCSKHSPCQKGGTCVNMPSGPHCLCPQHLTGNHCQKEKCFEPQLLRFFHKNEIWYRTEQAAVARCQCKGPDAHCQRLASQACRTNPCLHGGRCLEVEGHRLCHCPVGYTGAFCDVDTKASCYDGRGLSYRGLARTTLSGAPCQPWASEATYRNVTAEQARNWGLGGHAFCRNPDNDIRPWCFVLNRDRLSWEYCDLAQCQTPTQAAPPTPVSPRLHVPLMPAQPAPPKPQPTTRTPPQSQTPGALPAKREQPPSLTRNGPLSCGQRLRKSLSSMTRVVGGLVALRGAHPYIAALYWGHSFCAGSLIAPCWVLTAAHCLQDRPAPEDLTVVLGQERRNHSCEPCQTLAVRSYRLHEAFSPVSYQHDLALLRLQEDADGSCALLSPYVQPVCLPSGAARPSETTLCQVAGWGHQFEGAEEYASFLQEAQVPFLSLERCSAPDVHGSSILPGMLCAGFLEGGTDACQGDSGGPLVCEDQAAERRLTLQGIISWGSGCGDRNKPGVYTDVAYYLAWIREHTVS
In kind it is functional.

A short description of assay [19]: microbe, parasite or virus in culture. It is filed as functional. Particulars: Mycobacterium tuberculosis.

Cyclin-dependent kinase 5/CDK5 activator 1, sequence (Q00535 whole entry): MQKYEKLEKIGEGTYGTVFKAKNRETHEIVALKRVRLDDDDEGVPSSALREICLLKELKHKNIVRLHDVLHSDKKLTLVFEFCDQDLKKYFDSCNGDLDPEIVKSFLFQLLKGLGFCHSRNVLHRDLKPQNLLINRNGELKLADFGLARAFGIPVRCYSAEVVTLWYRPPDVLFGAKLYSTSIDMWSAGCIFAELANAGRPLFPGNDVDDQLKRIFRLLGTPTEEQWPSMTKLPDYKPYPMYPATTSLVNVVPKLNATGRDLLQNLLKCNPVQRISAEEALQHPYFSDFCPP
Cyclin-dependent kinase 5/CDK5 activator 1, sequence (Q15078 whole entry, further chain): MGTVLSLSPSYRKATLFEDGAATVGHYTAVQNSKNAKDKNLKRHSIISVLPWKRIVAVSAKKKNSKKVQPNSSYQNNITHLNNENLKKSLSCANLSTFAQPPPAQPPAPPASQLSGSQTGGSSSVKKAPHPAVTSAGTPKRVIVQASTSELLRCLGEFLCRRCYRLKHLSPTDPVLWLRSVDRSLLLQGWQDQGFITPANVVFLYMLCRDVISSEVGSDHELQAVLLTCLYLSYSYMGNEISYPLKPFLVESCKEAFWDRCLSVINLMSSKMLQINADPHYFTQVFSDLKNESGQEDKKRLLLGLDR
Photoreceptor-specific nuclear receptor, sequence (Q9Y5X4 whole entry): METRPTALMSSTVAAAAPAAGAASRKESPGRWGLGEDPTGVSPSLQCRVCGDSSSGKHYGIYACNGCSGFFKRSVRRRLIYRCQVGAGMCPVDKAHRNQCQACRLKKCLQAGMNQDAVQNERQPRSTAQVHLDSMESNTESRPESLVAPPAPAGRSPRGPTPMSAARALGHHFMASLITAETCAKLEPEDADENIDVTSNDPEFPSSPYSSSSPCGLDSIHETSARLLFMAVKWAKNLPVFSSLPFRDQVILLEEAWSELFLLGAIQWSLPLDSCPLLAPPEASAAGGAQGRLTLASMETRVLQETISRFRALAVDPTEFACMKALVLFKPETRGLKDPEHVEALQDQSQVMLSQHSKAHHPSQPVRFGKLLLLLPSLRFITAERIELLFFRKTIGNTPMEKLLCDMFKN
Paired box protein Pax-8, sequence (Q06710 whole entry): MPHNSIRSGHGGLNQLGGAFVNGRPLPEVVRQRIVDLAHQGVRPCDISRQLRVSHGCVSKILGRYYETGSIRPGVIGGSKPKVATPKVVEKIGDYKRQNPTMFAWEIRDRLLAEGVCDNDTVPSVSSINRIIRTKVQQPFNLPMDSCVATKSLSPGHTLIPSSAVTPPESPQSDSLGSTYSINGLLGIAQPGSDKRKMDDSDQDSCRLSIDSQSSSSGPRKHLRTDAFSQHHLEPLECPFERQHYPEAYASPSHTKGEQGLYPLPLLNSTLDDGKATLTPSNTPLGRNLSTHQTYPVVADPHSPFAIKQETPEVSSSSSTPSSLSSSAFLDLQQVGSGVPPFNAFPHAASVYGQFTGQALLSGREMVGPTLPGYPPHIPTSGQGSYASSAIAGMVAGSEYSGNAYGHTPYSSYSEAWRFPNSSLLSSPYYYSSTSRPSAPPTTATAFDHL
Luciferin 4-monooxygenase, sequence (P08659 whole entry): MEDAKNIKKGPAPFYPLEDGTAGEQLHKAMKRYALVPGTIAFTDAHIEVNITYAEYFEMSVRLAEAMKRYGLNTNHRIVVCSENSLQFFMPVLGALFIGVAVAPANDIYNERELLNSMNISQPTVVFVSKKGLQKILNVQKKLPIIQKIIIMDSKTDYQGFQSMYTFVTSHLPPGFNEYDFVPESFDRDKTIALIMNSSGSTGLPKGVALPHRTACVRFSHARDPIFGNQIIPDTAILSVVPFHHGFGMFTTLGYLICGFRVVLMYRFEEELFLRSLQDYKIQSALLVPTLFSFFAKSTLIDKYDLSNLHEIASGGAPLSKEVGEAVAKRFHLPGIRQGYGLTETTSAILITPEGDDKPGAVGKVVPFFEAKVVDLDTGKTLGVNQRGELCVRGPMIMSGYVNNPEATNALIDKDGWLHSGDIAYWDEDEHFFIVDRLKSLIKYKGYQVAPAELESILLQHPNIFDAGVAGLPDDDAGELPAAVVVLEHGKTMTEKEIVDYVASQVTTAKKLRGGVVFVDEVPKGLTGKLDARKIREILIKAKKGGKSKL
Peroxisome proliferator-activated receptor gamma/Nuclear receptor corepressor 2, sequence (P37231 whole entry): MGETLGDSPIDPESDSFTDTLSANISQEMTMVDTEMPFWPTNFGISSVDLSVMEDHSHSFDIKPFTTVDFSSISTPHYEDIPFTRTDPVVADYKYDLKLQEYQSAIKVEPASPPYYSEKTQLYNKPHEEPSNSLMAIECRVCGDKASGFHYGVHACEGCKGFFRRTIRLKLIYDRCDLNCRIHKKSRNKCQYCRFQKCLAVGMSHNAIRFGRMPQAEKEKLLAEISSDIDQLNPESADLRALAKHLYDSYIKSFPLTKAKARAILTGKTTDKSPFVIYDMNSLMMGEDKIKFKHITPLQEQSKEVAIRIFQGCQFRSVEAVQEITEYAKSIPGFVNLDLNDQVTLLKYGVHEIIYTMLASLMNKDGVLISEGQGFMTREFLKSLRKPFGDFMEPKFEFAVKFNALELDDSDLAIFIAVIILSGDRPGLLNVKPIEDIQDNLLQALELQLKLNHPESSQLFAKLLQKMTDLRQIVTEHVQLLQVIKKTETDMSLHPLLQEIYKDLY
Peroxisome proliferator-activated receptor gamma/Nuclear receptor corepressor 2, sequence (Q9Y618 whole entry): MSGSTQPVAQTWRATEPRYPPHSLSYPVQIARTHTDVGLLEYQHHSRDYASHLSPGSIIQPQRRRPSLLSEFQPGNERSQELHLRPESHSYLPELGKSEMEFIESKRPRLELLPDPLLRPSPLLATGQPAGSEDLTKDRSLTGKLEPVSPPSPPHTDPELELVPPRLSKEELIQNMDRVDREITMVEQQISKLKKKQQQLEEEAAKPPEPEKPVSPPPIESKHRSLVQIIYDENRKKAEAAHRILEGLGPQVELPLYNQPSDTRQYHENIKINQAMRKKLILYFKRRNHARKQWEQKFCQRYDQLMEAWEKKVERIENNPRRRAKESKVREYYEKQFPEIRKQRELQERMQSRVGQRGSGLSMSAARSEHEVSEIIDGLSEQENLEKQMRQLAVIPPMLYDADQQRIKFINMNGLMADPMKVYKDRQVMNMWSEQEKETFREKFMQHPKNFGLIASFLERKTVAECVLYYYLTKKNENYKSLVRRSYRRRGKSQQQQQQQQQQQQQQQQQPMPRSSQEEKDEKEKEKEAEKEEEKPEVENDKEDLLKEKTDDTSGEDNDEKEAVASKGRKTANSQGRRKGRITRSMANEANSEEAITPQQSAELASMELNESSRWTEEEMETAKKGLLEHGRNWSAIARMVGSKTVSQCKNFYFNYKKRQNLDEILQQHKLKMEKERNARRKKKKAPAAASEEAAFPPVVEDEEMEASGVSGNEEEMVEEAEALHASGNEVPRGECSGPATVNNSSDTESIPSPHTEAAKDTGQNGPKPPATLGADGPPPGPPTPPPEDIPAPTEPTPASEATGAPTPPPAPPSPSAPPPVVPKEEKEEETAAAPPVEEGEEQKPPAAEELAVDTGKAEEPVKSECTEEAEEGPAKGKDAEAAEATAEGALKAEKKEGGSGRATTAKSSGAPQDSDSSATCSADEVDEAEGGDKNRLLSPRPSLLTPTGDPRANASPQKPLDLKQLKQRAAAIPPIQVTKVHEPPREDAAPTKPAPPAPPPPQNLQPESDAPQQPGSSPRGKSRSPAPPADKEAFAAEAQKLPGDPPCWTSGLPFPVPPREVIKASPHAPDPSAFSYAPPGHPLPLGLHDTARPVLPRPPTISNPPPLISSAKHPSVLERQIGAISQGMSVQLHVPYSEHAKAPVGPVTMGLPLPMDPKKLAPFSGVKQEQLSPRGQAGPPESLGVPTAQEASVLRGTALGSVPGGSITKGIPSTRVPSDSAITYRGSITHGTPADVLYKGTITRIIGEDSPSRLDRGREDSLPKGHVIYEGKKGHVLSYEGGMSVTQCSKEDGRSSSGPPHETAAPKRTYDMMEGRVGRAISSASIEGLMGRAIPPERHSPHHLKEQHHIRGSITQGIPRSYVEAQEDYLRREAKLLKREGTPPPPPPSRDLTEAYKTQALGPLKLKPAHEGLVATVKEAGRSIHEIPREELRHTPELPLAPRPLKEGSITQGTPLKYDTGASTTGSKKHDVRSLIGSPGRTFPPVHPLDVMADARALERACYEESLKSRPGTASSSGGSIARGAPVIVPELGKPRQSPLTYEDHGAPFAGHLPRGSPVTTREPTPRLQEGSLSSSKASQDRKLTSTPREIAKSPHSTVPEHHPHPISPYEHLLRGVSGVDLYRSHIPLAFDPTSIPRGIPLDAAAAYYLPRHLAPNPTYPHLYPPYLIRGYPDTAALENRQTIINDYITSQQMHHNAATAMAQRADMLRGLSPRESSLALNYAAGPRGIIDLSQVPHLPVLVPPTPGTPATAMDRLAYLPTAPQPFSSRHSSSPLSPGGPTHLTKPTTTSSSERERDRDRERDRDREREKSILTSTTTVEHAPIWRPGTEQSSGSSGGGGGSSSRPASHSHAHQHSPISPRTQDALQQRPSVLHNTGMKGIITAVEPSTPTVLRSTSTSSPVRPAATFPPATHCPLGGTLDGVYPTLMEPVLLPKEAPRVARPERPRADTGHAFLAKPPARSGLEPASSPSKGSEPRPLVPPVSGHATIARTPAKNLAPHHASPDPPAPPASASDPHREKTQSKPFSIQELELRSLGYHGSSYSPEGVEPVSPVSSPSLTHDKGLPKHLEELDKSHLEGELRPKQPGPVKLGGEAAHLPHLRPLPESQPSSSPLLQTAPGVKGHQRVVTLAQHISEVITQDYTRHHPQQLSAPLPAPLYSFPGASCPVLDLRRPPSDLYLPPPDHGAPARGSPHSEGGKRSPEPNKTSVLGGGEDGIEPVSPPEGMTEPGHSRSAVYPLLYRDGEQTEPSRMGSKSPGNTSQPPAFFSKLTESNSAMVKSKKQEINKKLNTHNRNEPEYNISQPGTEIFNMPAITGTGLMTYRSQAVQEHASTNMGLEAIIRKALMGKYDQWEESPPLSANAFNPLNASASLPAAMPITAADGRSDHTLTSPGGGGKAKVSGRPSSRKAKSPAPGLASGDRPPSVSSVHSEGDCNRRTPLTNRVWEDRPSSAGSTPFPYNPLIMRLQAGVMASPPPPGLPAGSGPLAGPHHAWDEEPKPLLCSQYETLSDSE

With `COc1ccc(C(=O)ON=C(N)c2ccccn2)cc1`, the EC50 in [1] is 1.47 µM (active). Also, the AC50 in assay [2] was 12.6 µM (active); in [3], 8.88 µM (active).

Take `COc1ccc(N/C=C\C(=O)c2ccc(C)cc2)cc1OC`: the EC50 was > 300 µM (not active) in assay [4], > 300 µM (not active) in assay [5], > 99 µM (inactive) in assay [6] and 25 µM (inactive) in [7].

Consider `CN1CCN(C(=O)c2ccc3c(c2)NC(=O)/C(=C/c2ccccc2)S3)CC1`, for which the AC50 in [2] is 29.7 µM (active).

As to `Oc1ccc(-c2nc3ccccn3c2NCc2ccc3c(c2)OCO3)cc1`, the AC50 in assay [8] was 27.7 µM (active).

For `CCOC(=O)Cn1/c(=N/C(=O)c2ccc([N+](=O)[O-])s2)sc2ccccc21`, the AC50 in [9] was 3.5 µM (active). Moreover, the EC50 in assay [6] and in assay [7] was > 99 µM (inactive) in each case.

For the compound `COc1cc2c(cc1O)CC[C@@H]1[C@@H]2CC[C@]2(C)[C@@H](O)CC[C@@H]12` [2-METHOXYESTRADIOL], the IC50 in assay [10] was > 80 µM (inactive).

Regarding `Cc1ccc2nc(-c3cc(-c4ccccc4)no3)cn2c1`, the EC50 in assay [11] was 7.48 µM (inconclusive); in assay [12], 3.61 µM (active); in assay [13], 3.08 µM (active). In addition, the IC50 in assay [14] and in [15] was > 39.8 µM (not active) each time.

For `O=C(CCc1nc(-c2ccccc2)c(-c2ccccc2)o1)OCc1ccc(Br)cc1`, the IC50 was 8.36 µM (active) in assay [16] and 15.1 µM (not active) in [17].

As for `CN(C(=O)Oc1cccc2cccnc12)c1ccccc1`, in assay [18], the IC50 is > 50 µM (inactive).

In the case of `O=C(NCCN1C(=O)C2C3C=CC(C3)C2C1=O)Nc1ccccc1` (centres undefined), in assay [18], the IC50 was > 50 µM (inactive).

As to `CCOC(=O)c1cc2c(O)nccc2nc1C`, the AC50 in [8] was 10.3 µM (active).

Take `CC(C)OC(=O)/C(C#N)=C/c1ccc(-c2ccc(SC(F)F)cc2)o1`: in assay [19], the CC50 was > 40 µM (active). The results for the EC50 in [6] and in assay [7] were > 99 µM (inactive) and 11.9 µM (active), respectively.

Take `CC(C)OC(=O)/C(=C/c1ccc2c(c1)c1ccccc1n2C)NC(=O)c1ccccc1`: the figures for the IC50 in [16] and in assay [17] were 19.1 µM (not active) and 14.7 µM (not active), respectively.

In the case of `Cc1cccc(-n2ccnc2SCC(=O)N2CCCc3ccccc32)c1C`, the IC50 in assay [16] is 4.08 µM (active); in [17], 1.56 µM (active).

On to `Cc1ccc(C(=O)Nc2cccc(C(=O)N/N=C/c3ccc(F)cc3)c2)cc1`, for which the EC50 is 41.1 µM (inactive) in [6] and > 99 µM (inactive) in assay [7].

As to `COc1cc(-c2noc(C)c2C#Cc2ccsc2)cc(OC)c1OC`, the IC50 in assay [10] is > 80 µM (inactive).

With `Cc1nn(-c2ncccn2)c2c1C(=O)CC(C)(C)C2Br` (centres undefined), the AC50 in assay [2] was 69.7 µM (active).
